Values belong to the compound of their own block, whether it stands above or below them.
Key:
RARalpha = target: T1, RARalpha (Homo sapiens, UniProt P10276); experiment: Transactivation test, HeLa reporter cells (RARalpha); format: cell-based
T1 sequence (P10276 183-417 limits assumed): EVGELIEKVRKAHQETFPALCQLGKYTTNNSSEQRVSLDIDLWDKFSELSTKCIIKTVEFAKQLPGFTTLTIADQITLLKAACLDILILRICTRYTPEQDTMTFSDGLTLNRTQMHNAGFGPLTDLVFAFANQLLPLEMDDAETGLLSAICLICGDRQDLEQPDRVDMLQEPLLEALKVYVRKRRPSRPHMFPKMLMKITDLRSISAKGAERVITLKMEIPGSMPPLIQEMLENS
Protocol: (§1) The activation of the receptors by an agonist (activator) in HeLa cells results in the expression of a reporter gene, luciferase, which, in the presence of a substrate, generates light. It is therefore possible to measure the activation of the receptors by quantifying the luminescence produced after incubation of the cells in the presence of a reference antagonist. The activator products displace the antagonist from its site, thus allowing activation of the receptor. The measurement of the activity is carried out by quantifying the increase in the light produced. This measurement makes it possible to determine the activating activity of the compound for use in the invention.
(§2) In this study, a constant which is the affinity of the molecule for the receptor is determined. Since this value can fluctuate depending on the basal activity and the expression of the receptor, it is designated apparent Kd (KdApp). […]
(§3) These cross curves make it possible to determine the AC50 values (concentration at which 50% activation is observed) for the reference ligand at various concentrations of product to be tested. These AC50 values are used to calculate the Schild regression by plotting a straight line corresponding to the Schild equation (“quantitation in receptor pharmacology”, Terry P. Kenakin, Receptors and Channels, 2001, 7, 371-385).
(§4) In the case of an agonist, the AC50 value (concentration that gives 50% of the activity) is calculated by plotting the curve of the product at the concentration of the reference ligand that gives 80% activation. The percentage activation which corresponds to the maximum level of activity obtained is also measured. […]
(§5) The culture medium is removed by turning the plates upside down and 100 μl of a 1:1 PBS (phosphate buffer solution)/luciferin mixture are added to each well. After 5 minutes, the plates are read with a luminescence reader.

RARbeta = target: T2, RARbeta (Homo sapiens, UniProt P10826); experiment: Transactivation test, HeLa reporter cells (RARbeta); format: cell-based
T2 sequence (P10826 183-417 limits assumed): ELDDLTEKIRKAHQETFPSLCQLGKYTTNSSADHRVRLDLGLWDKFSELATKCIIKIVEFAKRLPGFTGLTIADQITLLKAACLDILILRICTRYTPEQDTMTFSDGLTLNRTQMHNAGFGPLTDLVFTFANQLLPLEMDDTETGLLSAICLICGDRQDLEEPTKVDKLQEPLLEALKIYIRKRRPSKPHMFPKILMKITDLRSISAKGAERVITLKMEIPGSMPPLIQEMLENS
Protocol: as §1, §2, §3, §4, §5

RARgamma = target: T3, RARgamma (Homo sapiens, UniProt P13631); experiment: Transactivation test, HeLa reporter cells (RARgamma); format: cell-based; details: for specificity for RARgamma in comparison with RARalpha and RARbeta: transactivation test, in words
T3 sequence (P13631 185-419 limits assumed): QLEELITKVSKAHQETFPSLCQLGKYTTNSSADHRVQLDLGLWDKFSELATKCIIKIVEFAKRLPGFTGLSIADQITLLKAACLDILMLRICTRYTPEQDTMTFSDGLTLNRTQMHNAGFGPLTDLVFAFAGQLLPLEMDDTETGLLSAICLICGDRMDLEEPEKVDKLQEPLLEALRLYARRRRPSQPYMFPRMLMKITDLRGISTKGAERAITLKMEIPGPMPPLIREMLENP
Protocol: as §1
In this study, a constant which is the affinity of the molecule for the receptor is determined. Since this value can fluctuate depending on the basal activity and the expression of the receptor, it is designated apparent Kd (KdApp).
To determine this constant, “cross curves” for the product to be tested (2-hydroxy-4-[2-hydroxyimino-2-(5,5,8,8-tetramethyl-5,6,7,8-tetrahydronaphthalen-2-yl)ethoxy]benzoic acid), against a reference antagonist, otherwise called reference ligand, 4-(5,5-dimethyl-8-p-tolyl-5,6-dihydronaphthalen-2-ylethynyl)benzoic acid, are produced. The product to be tested is used at 10 concentrations and the reference antagonist at 7 concentrations. In each well (of a 96-well plate), the cells are in contact with one concentration of the product to be tested and one concentration of the reference antagonist.
Measurements are also carried out for the total agonist control, otherwise called 100% control (4-[2-(5,5,8,8-tetramethyl-5,6,7,8-tetrahydronaphthalen-2-yl)propenyl]benzoic acid), and the inverse agonist control, otherwise called 0% control, 4-{(E)-3-[4-(4-tert-butylphenyl)-5,5,8,8-tetramethyl-5,6,7,8-tetrahydronaphthalen-2-yl]-3-oxopropenyl}benzoic acid.
as §3
In the case of an agonist, the AC50 value (concentration that gives 50% of the activity) is calculated by plotting the curve of the product at the concentration of the reference ligand that gives 80% activation. The percentage activation which corresponds to the maximum level of activity obtained is also measured.
The HeLa cell lines used are stable transfectants containing the plasmids ERE-βGlob-Luc-SV-Neo (reporter gene) and RAR (α, β, γ) ER-DBD-puro. These cells are seeded into 96-well plates at a rate of 10,000 cells per well in 100 μl of DMEM medium without phenol red, supplemented with 10% of delipidized calf serum. The plates are then incubated at 37° C., 7% CO2 for 4 hours. […]
as §5

[1] = concentration that gives 50% of the activity, HeLa luciferase reporter

melting point: 130 °C
SMILES: CC(C)OC(=O)c1ccc(OCC(=NO)c2ccc3c(c2)C(C)(C)CCC3(C)C)cc1O [Example 2, isopropyl 2-hydroxy-4-[2-hydroxyimino-2-(5,5,8,8-tetramethyl-5,6,7,8-tetrahydronaphthalen-2-yl)ethoxy]benzoate]

Kd (RARalpha; apparent Kd, Schild regression against reference antagonist, HeLa luciferase reporter, read-out: RARalpha Kdapp): 4060 nM
RARalpha % activation (RARalpha; at 10 μM, maximum level of activity): 100%
AC50 (RARalpha; [1]): 1700 nM
Kd (RARbeta; apparent Kd, Schild regression against reference antagonist, HeLa luciferase reporter, read-out: RARbeta Kdapp): 1030 nM
RARbeta % Activation (RARbeta; at 5 μM, maximum level of activity): 100%
AC50 (RARbeta; [1]): 600 nM
Kd (RARgamma; apparent Kd, Schild regression against reference antagonist, HeLa luciferase reporter, read-out: RARgamma Kdapp): 8 nM
RARgamma % activation (RARgamma; at 0.04 μM, maximum level of activity): 100%
AC50 (RARgamma; [1]): 9 nM
SMILES: CC1(C)CCC(C)(C)c2cc(C(COc3ccc(C(=O)O)c(O)c3)=NO)ccc21 [Acid compound of the invention, 2-hydroxy-4-[2-hydroxyimino-2-(5,5,8,8-tetramethyl-5,6,7,8-tetrahydronaphthalen-2-yl)ethoxy]benzoic acid]
specificity for RARgamma in comparison with RARalpha and RARbeta (RARgamma; listed as 2-Hydroxy-4-[2-hydroxyimino-2-(5,5,8,8-tetramethyl-5,6,7,8-tetrahydronaphthalen-): selective agonist or activator of the RARgamma receptor
specificity for RARgamma in comparison with RARalpha and RARbeta (RARgamma; listed as 2-hydroxy-4-[2-hydroxyimino-2-(5,5,8,8-tetramethyl-5,6,7,8-tetrahydronaphthalen-): great specificity for the receptor subtype RARgamma

melting point: 130 °C
SMILES: CCOC(=O)c1ccc(OCC(=NO)c2ccc3c(c2)C(C)(C)CCC3(C)C)cc1O [Example 1, ethyl 2-hydroxy-4-[2-hydroxyimino-2-(5,5,8,8-tetramethyl-5,6,7,8-tetrahydronaphthalen-2-yl)ethoxy]benzoate]

melting point: 96 °C
SMILES: CC(C)COC(=O)c1ccc(OCC(=NO)c2ccc3c(c2)C(C)(C)CCC3(C)C)cc1O [Example 3, isobutyl 2-hydroxy-4-[2-hydroxyimino-2-(5,5,8,8-tetramethyl-5,6,7,8-tetrahydronaphthalen-2-yl)ethoxy]benzoate]
